Here are results for 28 compounds from US8134015B2, “Compound inhibiting in vivo phosphorous transport and medicine containing the same” (Kyowa Hakko Kirin Co., Ltd., priority 2003, dated 2012).

As a reminder, the IC50 is the concentration that gives 50% inhibition. As usually defined, the inhibition is the change of the read-out against control, counted positive when it falls. A low value points to a weak effect.

SMILES strings stand for the structures.

The target in the first test is T1, rat NaPi-2b (Rattus norvegicus, UniProt Q9JJ09).
T1 construct: expressed in transfected cells; host or cells: Xenopus oocytes injected with cRNA
T1 sequence (Q9JJ09 1-695): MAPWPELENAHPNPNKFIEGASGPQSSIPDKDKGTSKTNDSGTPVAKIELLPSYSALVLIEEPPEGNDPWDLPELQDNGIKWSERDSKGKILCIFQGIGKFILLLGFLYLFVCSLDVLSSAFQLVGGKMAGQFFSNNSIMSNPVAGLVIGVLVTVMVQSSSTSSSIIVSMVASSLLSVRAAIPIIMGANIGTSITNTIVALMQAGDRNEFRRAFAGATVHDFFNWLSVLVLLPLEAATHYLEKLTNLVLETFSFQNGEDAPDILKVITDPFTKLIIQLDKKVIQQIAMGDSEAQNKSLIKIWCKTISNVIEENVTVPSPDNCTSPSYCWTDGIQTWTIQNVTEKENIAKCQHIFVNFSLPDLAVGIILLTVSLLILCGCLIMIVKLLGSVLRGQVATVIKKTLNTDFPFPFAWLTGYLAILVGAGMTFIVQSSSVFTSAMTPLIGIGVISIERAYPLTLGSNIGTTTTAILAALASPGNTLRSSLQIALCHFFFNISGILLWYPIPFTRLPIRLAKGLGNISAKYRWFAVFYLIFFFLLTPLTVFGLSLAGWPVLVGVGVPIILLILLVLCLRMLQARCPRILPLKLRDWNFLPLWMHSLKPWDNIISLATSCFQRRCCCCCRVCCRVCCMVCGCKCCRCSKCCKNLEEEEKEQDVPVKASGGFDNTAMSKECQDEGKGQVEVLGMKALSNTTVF
Nature of the test: Sodium-dependent phosphate uptake of Xenopus oocytes which expressed NaPi-2b (32P). The class given is cell-based. The conditions noted are these: Xenopus oocytes expressing rat NaPi-2b, 32P radioactive phosphorus; read-out: IC50 (phosphate uptake inhibitory activity). The gist of the method:
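Percent inhibition at 300 μM and 100 μM comes from the same inhibition curve of 32P uptake. Assay used oocytes expressing rat NaPi-2b after 2 days of culture.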
As for `CCCN(CCC)c1ccc(NC(=O)c2cccc(CN(C)CCN(CC)CC)c2)c(C(=O)N/N=C/c2ccc(OC)cc2)c1` [Compound 912, 3-{[(2-Diethylamino-ethyl)-methyl-amino]-methyl}-N-[4-dipropylamino-2-(4-methoxy-benzylidene-hydrazinocarbonyl)-phenyl]-benzamide], the IC50 worked out at 1.04 µM.
Turning to `COc1ccc(C(=O)Nc2ccc(C)cc2C(=O)N/N=C/c2cccc(F)c2)cc1OC` [Compound 146, N-[2-(3-Fluoro-benzylidene-hydrazinocarbonyl)-4-methyl-phenyl]-3,4-dimethoxy-benzamide], the IC50 came to 1.99 µM.
For `O=C(Nc1ccc(Br)cc1C(=O)N/N=C/c1ccc(F)cc1)c1cccs1` [Compound 158, Thiophene-2-carboxylic acid [4-bromo-2-(4-fluoro-benzylidene-hydrazinocarbonyl)-phenyl]-amide], the IC50 worked out at 3.28 µM.
With `Cc1ccc(/C=N/NC(=O)c2cc(Cl)ccc2NC(=O)c2ccncc2)cc1C` [Compound 193, N-[4-Chloro-2-(3,4-dimethyl-benzylidene-hydrazinocarbonyl)-phenyl]-isonicotinamide], the IC50 stood at 4.21 µM.
Same read-out and setting: next, `COc1ccc(C(=O)Nc2ccc(I)cc2C(=O)N/N=C/c2ccc(C)c(C)c2)cc1OC` [Compound 208, N-[2-(3,4-Dimethyl-benzylidene-hydrazinocarbonyl)-4-iodo-phenyl]-3,4-dimethoxy-benzamide]: less than 0.3 µM.
For `Cc1ccc(/C=N/NC(=O)c2cc(Br)ccc2NC(=O)c2ccncc2)cc1C` [Compound 170, N-[4-Bromo-2-(3,4-dimethyl-benzylidene-hydrazinocarbonyl)-phenyl]-isonicotinamide], the IC50 turned out to be 5.34 µM.
As to `COc1ccc(C(=O)Nc2ccc(Br)cc2C(=O)N/N=C(\C)c2cccc(F)c2)cc1OC` [Compound 214, N-{4-Bromo-2-[1-(3-fluoro-phenyl)-ethylidene-hydrazinocarbonyl]-phenyl}-3,4-dimethoxy-benzamide], the IC50 came out at 3.95 µM.
Consider `O=C(Nc1ccccc1C(=O)N/N=C/c1ccccc1)c1ccccc1` [Compound 224, N-[2-(Benzylidene-hydrazinocarbonyl)-phenyl]-benzamide], for which the IC50 stood at 20 µM.
Still for that read-out and setting: next, `O=C(Nc1ccc(Cl)cc1C(=O)N/N=C/c1cccc(O)c1)c1cccc(CN(CCO)CCO)c1` [Compound 410, 3-{[Bis-(2-hydroxy-ethyl)-amino]-methyl}-N-[4-chloro-2-(3-hydroxy-benzylidene-hydrazinocarbonyl)-phenyl]-benzamide]: 4.05 µM; `O=C(Nc1ccc(Cl)cc1C(=O)N/N=C/c1ccc(Cl)c(C(F)(F)F)c1)c1cccnc1` [Compound 189, N-[4-Chloro-2-(4-chloro-3-trifluoromethyl-benzylidene-hydrazinocarbonyl)-phenyl]-nicotinamide]: 1.47 µM.
In the case of `COc1ccc(/C=N/NC(=O)c2cc(Br)ccc2NC(=O)c2ccc(CN3CCC(CO)CC3)cc2)cc1` [Compound 338, N-[4-Bromo-2-(4-methoxy-benzylidene-hydrazinocarbonyl)-phenyl]-4-(4-hydroxymethyl-piperidin-1-ylmethyl)-benzamide], the IC50 worked out at 19 µM.
As for `C/C(=N\NC(=O)c1cc(Br)ccc1NC(=O)c1cccnc1)c1ccc(C)cc1` [Compound 216, N-[4-Bromo-2-(1-p-toluyl-ethylidene-hydrazinocarbonyl)-phenyl]-nicotinamide], the IC50 was found to be 21.8 µM.
For the compound `COc1cc(/C=N/NC(=O)c2cc(N3CCOCC3)ccc2NC(=O)c2ccc(OC)c(OC)c2)ccc1O` [Compound 940, N-[2-(4-Hydroxy-3-methoxy-benzylidene-hydrazinocarbonyl)-4-morpholin-4-yl-phenyl]-3,4-dimethoxy-benzamide], the IC50 was found to be 30.6 µM.
Same read-out and setting: the same measure for `Cc1csc(NC(=O)c2cccc(CN3CCC(O)CC3)c2)c1C(=O)N/N=C/c1cccc(F)c1` [Compound 596, N-[3-(3-Fluoro-benzylidene-hydrazinocarbonyl)-4-methyl-thiophen-2-yl]-3-(4-hydroxy-piperidin-1-ylmethyl)-benzamide]: 5.47 µM.
With `COc1ccc(C(=O)Nc2ccccc2C(=O)N/N=C/c2cc(C(C)(C)C)c(O)c(C(C)(C)C)c2)cc1OC` [Compound 6, N-[2-(3,5-Di-tert-butyl-4-hydroxy-benzylidene-hydrazinocarbonyl)-phenyl]-3,4-dimethoxy-benzamide], the IC50 stood at 5.38 µM.
As to `COc1cccc(/C=N/NC(=O)c2cc(Cl)ccc2NC(=O)c2cccc(CN3CCC(N4CCCCC4)CC3)c2)c1` [Compound 374, 3-[1,4′]Bipiperidinyl-1′-ylmethyl-N-[4-chloro-2-(3-methoxy-benzylidene-hydrazinocarbonyl)-phenyl]-benzamide], the IC50 came to 9.25 µM.
Still for that read-out and setting: the same measure for `Cc1ccc(/C=N/NC(=O)c2c(NC(=O)c3cccc(CSCCCO)c3)sc3c2CCCC3)cc1C` [Compound 605, N-[3-(3,4-Dimethyl-benzylidene-hydrazinocarbonyl)-4,5,6,7-tetrahydro-benzo[b]thiophen-2-yl]-3-(3-hydroxy-propylsulfanyl-methyl)-benzamide]: 0.95 µM; for `COc1ccc(C(=O)Nc2ccc(Br)cc2C(=O)N/N=C/c2cccnc2)cc1OC` [Compound 110, N-[4-Bromo-2-(pyridin-3-ylmethylene-hydrazinocarbonyl)-phenyl]-3,4-dimethoxy-benzamide]: 7.7 µM; for `O=C(Nc1ccc(Cl)cc1C(=O)N/N=C/c1cccc(O)c1)c1cccc(CN2CCC(N3CCCCC3)CC2)c1` [Compound 376, 3-[1,4′]Bipiperidinyl-1′-ylmethyl-N-[4-chloro-2-(3-hydroxy-benzylidene-hydrazinocarbonyl)-phenyl]-benzamide]: 21 µM.
As to `Cc1ccc(/C=N/NC(=O)c2cc(N3CCCC3=O)ccc2NC(=O)c2cccc(CN(CC(C)O)CC(C)O)c2)cc1` (stereo not shown) [Compound 948, 3-{[Bis-(2-hydroxy-propyl)-amino]-methyl}-N-[2-(4-methyl-benzylidene-hydrazinocarbonyl)-4-(2-oxo-pyrrolidin-1-yl)-phenyl]-benzamide], the IC50 came out at 11.6 µM.
As to `COc1ccc(/C=N/NC(=O)c2cc(N3CCC(C)CC3)ccc2NC(=O)c2cccc(CSCCO)c2)cc1` [Compound 1071, 3-(2-Hydroxy-ethylsulfanylmethyl)-N-[2-(4-methoxy-benzylidene-hydrazinocarbonyl)-4-(4-methyl-piperidin-1-yl)-phenyl]-benzamide], the IC50 is less than 1 µM.
With `O=C(Nc1ccc(Br)cc1C(=O)N/N=C/c1ccc(F)cc1)c1ccc(CN2CCC(O)CC2)cc1` [Compound 327, N-[4-Bromo-2-(4-fluoro-benzylidene-hydrazinocarbonyl)-phenyl]-4-(4-hydroxy-piperidin-1-ylmethyl)-benzamide], the IC50 is 5.12 µM.
As to `O=c1c2cc(Br)ccc2nc(-c2cccc(CSCCO)c2)n1/N=C/c1ccc(Cl)c(C(F)(F)F)c1` [Compound 698, 6-Bromo-3-[(4-chloro-3-trifluoromethyl-benzylidene-)-amino]-2-[3-(2-hydroxy-ethylsulfanylmethyl)-phenyl]-3H-quinazolin-4-one], the IC50 was less than 3 µM.
Turning to `COc1ccc(/C=N/NC(=O)c2cc(OCCCCF)ccc2NC(=O)c2cccc(CSCCO)c2)cc1` [Compound 1055, N-[4-(4-Fluoro-butoxy)-2-(4-methoxy-benzylidene-hydrazinocarbonyl)-phenyl]-3-(2-hydroxy-ethylsulfanylmethyl)-benzamide], the IC50 was 1.96 µM.
With `CCN(CC)CCN(C)Cc1cccc(C(=O)Nc2ccc(OC)cc2C(=O)N/N=C/c2ccc(Cl)c(C(F)(F)F)c2)c1` [Compound 1023, N-[2-(4-Chloro-3-trifluoromethyl-benzylidene-hydrazinocarbonyl)-4-methoxy-phenyl]-3-{[(2-diethylamino-ethyl)-methyl-amino]-methyl}-benzamide], the IC50 is 0.99 µM.

Still in this test, the particulars now being: phosphate uptake, oocytes expressing rat NaPi-2b; 300 μM, determined from inhibition curve.
`CCOCCN(CCOCC)Cc1ccc(C(=O)Nc2ccc(Br)cc2C(=O)N/N=C/c2ccc(F)cc2)cc1` [Compound 736, 4-{[Bis-(2-ethoxy-ethyl)-amino]-methyl}-N-[4-bromo-2-(4-fluoro-benzylidene-hydrazinocarbonyl)-phenyl]-benzamide] yielded an inhibition at 300 µM of 61.5%.
Take `C/C(=N\NC(=O)c1ccccc1NC(=O)c1cccnc1)c1ccc(C)cc1` [Compound 251, N-[2-(1-p-Toluyl-ethylidene-hydrazinocarbonyl)-phenyl]-nicotinamide]: the inhibition at 300 µM amounted to 31.2%.
Turning to `O=C(Nc1ccc(Cl)cc1C(=O)N/N=C/c1ccc(Cl)c(C(F)(F)F)c1)c1cccc(CSCCS(=O)(=O)O)c1` [Compound 709, 2-{3-[4-Chloro-2-(4-chloro-3-trifluoromethyl-benzylidene-hydrazinocarbonyl)-phenylcarbamoyl]-benzylsulfanyl}-ethanesulfonic acid], the inhibition at 300 µM was found to be 59.4%.
